ChEMBL document CHEMBL5729264, “Bicyclic compounds” (2022)

assay: Dual-Glo Luciferase Assay: The Dual-Glo Luciferase Reagent was prepared by transferring the contents of one bottle of Dual-Glo Luciferase Buffer to one bottle of Dual-Glo Luciferase Substrate to create the Dual-Glo Luciferase Reagent. Mixing was performed by inversion until the substrate was thoroughly dissolved. After mixing, the reagent was aliquoted into 15 ml tubes. In the afternoon (24 hrs post compound treatment), the DMEM+medium in the 384 well plates were aspirated by Microplate Washer.Measuring firefly luciferase activity: 20 ul Dual-Glo Luciferase Reagent was added to the 384-well plates. The plates were protected from light to prevent interference with the assay. The plates were shaken for 1 min followed centrifuging plates at 1000 rpm for 30 seconds. After waiting at least 10 minutes, the firefly luminescence was measured by Envision.Measuring renilla luciferase activity: 20 ul Stop-Glo Reagent was added to the 384-well plates. The plates were shaken for 1 min and then centrifuged at 1000 rpm for 30 seconds. After waiting at least 10 minutes, the renilla luminescence was measured by Envision.Compound IC50 and maximum inhibition on the firefly luciferase and renilla luciferase activities were reported separately.

Row | IC50 | SMILES
1 | in the range around 550 nM | CC(=O)N1CC([C@@H](C)NC(=O)c2ccc3c(Oc4ccc(C(F)(F)F)cc4)cccc3c2)C1
2 | in the range around 550 nM | C[C@H](NC(=O)c1ccc2c(Oc3ccc(C(F)(F)F)cc3)cccc2c1)c1nnnn1C
3 | < 100 nM | CC(C)NC(=O)c1ccc2c(Oc3ccc(C(F)(F)F)cc3)cccc2c1
4 | in the range around 550 nM | CNCCNC(=O)c1ccc2c(Oc3ccc(C(F)(F)F)cc3)cccc2c1
5 | in the range around 550 nM | CC(C)NC(=O)c1ccc2c(Oc3ccc(C(F)(F)F)cc3)ccnc2c1
6 | < 100 nM | C[C@H](CO)NC(=O)c1ccc2c(Oc3ccc(C(F)(F)F)cc3)cccc2c1
7 | < 100 nM | COC[C@H](C)NC(=O)c1ccc2c(Oc3ccc(C(F)(F)F)cc3)cccc2c1
8 | in the range around 550 nM | C[C@@H](NC(=O)c1ccc2c(Oc3ccc(C(F)(F)F)cc3)cccc2c1)c1nnnn1C
9 | < 100 nM | C[C@@H](NC(=O)c1ccc2c(Oc3ccc(C(F)(F)F)cc3)cccc2c1)C1CC1
10 | in the range around 550 nM | C[C@@H](NC(=O)c1ccc2c(Oc3ccc(C(F)(F)F)cc3)cccc2c1)c1ccccn1
11 | < 100 nM | C#CCCNC(=O)c1ccc2c(Oc3ccc(C(F)(F)F)cc3)cccc2c1
12 | < 100 nM | C[C@H](NC(=O)c1ccc2c(Oc3ccc(C(F)(F)F)cc3)cccc2c1)C1CCC1
13 | < 100 nM | C[C@@H](CN)NC(=O)c1ccc2c(Oc3ccc(C(F)(F)F)cc3)cccc2c1
14 | < 100 nM | C[C@H](NC(=O)c1ccc2c(Oc3ccc(C(F)(F)F)cc3)cccc2c1)c1nnn(C)n1
15 | < 100 nM | C[C@H](CCO)NC(=O)c1ccc2c(Oc3ccc(C(F)(F)F)cc3)cccc2c1
16 | < 100 nM | C[C@@H](NC(=O)c1ccc2c(Oc3ccc(C(F)(F)F)cc3)cccc2c1)c1cnccn1
17 | in the range around 2000 nM | C[C@H](NC(=O)c1ccc2c(Oc3ccc(C(F)(F)F)cc3)cccc2c1)c1nn[nH]n1
18 | < 100 nM | C[C@H](NC(=O)c1ccc2c(Oc3ccc(C(F)(F)F)cc3)cccc2c1)c1c[nH]cn1
19 | in the range around 550 nM | C[C@H](CN)NC(=O)c1ccc2c(Oc3ccc(C(F)(F)F)cc3)cccc2c1
20 | < 100 nM | C[C@@H](NC(=O)c1ccc2c(Oc3ccc(C(F)(F)F)cc3)cccc2c1)C1(O)CNC1
21 | < 100 nM | CCNCC[C@@H](C)NC(=O)c1ccc2c(Oc3ccc(C(F)(F)F)cc3)cccc2c1
22 | in the range around 2000 nM | C[C@H](NC(=O)c1ccc2c(Oc3ccc(C(F)(F)F)cc3)cccc2c1)C1(F)CNC1
23 | < 100 nM | C[C@@H](NC(=O)c1ccc2c(Oc3ccc(C(F)(F)F)cc3)cccc2c1)C1COC1

Row | IC50 | SMILES
24 | < 100 nM | C[C@H](CCN(C)C)NC(=O)c1ccc2c(Oc3ccc(C(F)(F)F)cc3)cccc2c1
25 | < 100 nM | CC#C[C@@H](C)NC(=O)c1ccc2c(Oc3ccc(C(F)(F)F)cc3)cccc2c1
26 | < 100 nM | CC(C)NC(=O)c1ccc2c(Oc3ccc(C(F)(F)F)cc3F)cccc2c1
27 | in the range around 550 nM | COC[C@@H](C)NC(=O)c1cnc2c(Oc3ccc(C(F)(F)F)cc3)cccc2c1
28 | in the range around 550 nM | C[C@H](NC(=O)c1ccc2c(Oc3ccc(C(F)(F)F)cc3)cccc2c1)c1nccn1C
29 | < 100 nM | C[C@H](CCN)NC(=O)c1ccc2c(Oc3ccc(C(F)(F)F)cc3)cccc2c1
30 | < 100 nM | C[C@H](CO)NC(=O)c1cnc2c(Oc3ccc(C(F)(F)F)cc3)cccc2c1
31 | < 100 nM | CC#C[C@H](C)NC(=O)c1ccc2c(Oc3ccc(C(F)(F)F)cc3)cccc2c1
32 | in the range around 550 nM | C[C@H](NC(=O)c1ccc2c(Oc3ccc(C(F)(F)F)cc3)cccc2c1)c1ncc[nH]1
33 | < 100 nM | CC(C)NC(=O)c1cc2cccc(Oc3ccc(C(F)(F)F)cc3)c2s1
34 | < 100 nM | C[C@@H](CCO)NC(=O)c1ccc2c(Oc3ccc(C(F)(F)F)cc3)cccc2c1
35 | < 100 nM | CNCC[C@@H](C)NC(=O)c1ccc2c(Oc3ccc(C(F)(F)F)cc3)cccc2c1
36 | < 100 nM | C[C@@H](NC(=O)c1ccc2c(Oc3ccc(C(F)(F)F)cc3)cccc2c1)C1CNC1
37 | in the range around 550 nM | C[C@@H](NC(=O)c1cnc2c(Oc3ccc(C(F)(F)F)cc3)cccc2c1)c1ccccn1
38 | < 100 nM | C[C@H](NC(=O)c1ccc2c(Oc3ccc(C(F)(F)F)cc3)cccc2c1)C1CC1
39 | in the range around 550 nM | N#CNC(=O)c1ccc2c(Oc3ccc(C(F)(F)F)cc3)cccc2c1
40 | < 100 nM | CC(C)NC(=O)c1ccc2c(Oc3ccc(C(F)(F)F)cc3)cccc2n1
41 | < 100 nM | C[C@@H](NC(=O)c1ccc2c(Oc3ccc(C(F)(F)F)cc3)cccc2c1)C1CCNCC1
42 | in the range around 2000 nM | CC(C)N1CC([C@@H](C)NC(=O)c2ccc3c(Oc4ccc(C(F)(F)F)cc4)cccc3c2)C1
43 | < 100 nM | CC(C)NC(=O)c1ccc2c(Oc3ccc(C(F)(F)F)cc3Cl)cccc2c1
44 | < 100 nM | C#C[C@@H](C)NC(=O)c1ccc2c(Oc3ccc(C(F)(F)F)cc3)cccc2c1
45 | < 100 nM | C[C@H](NC(=O)c1cnc2c(Oc3ccc(C(F)(F)F)cc3)cccc2c1)c1ccccn1
46 | < 100 nM | C[C@H](NC(=O)c1ccc2c(Oc3ccc(C(F)(F)F)cc3)cccc2c1)C(N)=O

Continued, compound first:

Row | SMILES | IC50
47 | C[C@H](NC(=O)c1ccc2c(Oc3ccc(C(F)(F)F)cc3)cccc2c1)C1CN(C2CC2)C1 | in the range around 2000 nM
48 | C[C@@H](NC(=O)c1ccc2c(Oc3ccc(C(F)(F)F)cc3)cccc2c1)C1CN(CC(F)F)C1 | < 100 nM
49 | CNCCCNC(=O)c1ccc2c(Oc3ccc(C(F)(F)F)cc3)cccc2c1 | < 100 nM
50 | C[C@@H](NC(=O)c1cnc2c(Oc3ccc(C(F)(F)F)cc3)cccc2c1)c1cccc2ccsc12 | in the range around 550 nM
51 | CNS(=O)(=O)c1ccc2c(Oc3ccc(Cl)c(Cl)c3)cccc2c1 | < 100 nM
52 | C[C@H](NC(=O)c1ccc2c(Oc3ccc(C(F)(F)F)cc3)cccc2c1)c1cccc(N(C)C)n1 | in the range around 550 nM
53 | C[C@@H](NC(=O)c1ccc2c(Oc3ccc(C(F)(F)F)cc3)cccc2c1)C1CCN(CCF)CC1 | in the range around 550 nM
54 | C[C@H](NC(=O)c1cnc2c(Oc3ccc(C(F)(F)F)cc3)cccc2c1)c1cccc2nc[nH]c12 | < 100 nM
55 | O=C(N[C@H](CCO)c1ccccn1)c1ccc2c(Oc3ccc(C(F)(F)F)cc3)cccc2c1 | in the range around 550 nM
56 | C[C@H](CCNCCO)NC(=O)c1ccc2c(Oc3ccc(C(F)(F)F)cc3)cccc2c1 | < 100 nM
57 | C[C@@H](NC(=O)c1ccc2c(Oc3ccc(C(F)(F)F)cc3)cccc2c1)C1CN(CCF)C1 | < 100 nM
58 | O=C(N[C@H](CO)c1ccccn1)c1ccc2c(Oc3ccc(C(F)(F)F)cc3)cccc2c1 | < 100 nM
59 | CC(C)N1CCC([C@@H](C)NC(=O)c2ccc3c(Oc4ccc(C(F)(F)F)cc4)cccc3c2)CC1 | in the range around 550 nM
60 | CC(C)NC(=O)c1ccc2c(Oc3ccc(Cl)c(Cl)c3)cccc2c1 | < 100 nM
61 | COc1cc(Oc2ccc(C(F)(F)F)cc2)c2ncc(C(=O)NC(CO)c3ccccn3)cc2c1 (stereo unspecified) | < 100 nM
62 | COC[C@H](C)NC(=O)c1cnc2c(Oc3ccc(C(F)(F)F)cc3)cc(OC)cc2c1 | < 100 nM
63 | CN(C#N)CCNC(=O)c1ccc2c(Oc3ccc(C(F)(F)F)cc3)cccc2c1 | < 100 nM
64 | COc1cc(Oc2ccc(C(F)(F)F)cc2)c2ncc(C(=O)N[C@H](C)CO)cc2c1 | < 100 nM
65 | O=C(NC(CO)c1ccccn1)c1ccc2c(Oc3ccc(C(F)(F)F)cc3)cccc2c1 (stereo unspecified) | < 100 nM
66 | O=C(N[C@@H](CO)C1CNC1)c1ccc2c(Oc3ccc(C(F)(F)F)cc3)cccc2c1 | in the range around 2000 nM

Row | SMILES | IC50
67 | C[C@H](CO)NC(=O)c1ccc2c(Oc3ccc(C(F)(F)F)cc3)nccc2c1 | < 100 nM
68 | C[C@@H](NC(=O)c1ccc2c(Oc3ccc(C(F)(F)F)cc3)cccc2c1)C1CCN(CCO)CC1 | in the range around 550 nM
69 | CS(=O)(=O)NC(=O)c1ccc2c(Oc3ccc(F)c(F)c3)cccc2c1 | < 100 nM
70 | CCN1CCC([C@@H](C)NC(=O)c2ccc3c(Oc4ccc(C(F)(F)F)cc4)cccc3c2)CC1 | in the range around 550 nM
71 | CN(C#N)CCCNC(=O)c1ccc2c(Oc3ccc(C(F)(F)F)cc3)cccc2c1 | < 100 nM
72 | NS(=O)(=O)c1ccc2c(Oc3ccc(C(F)(F)F)cc3)cccc2c1 | < 100 nM
73 | C[C@H](NC(=O)c1ccc2c(Oc3ccc(C(F)(F)F)cc3)cccc2c1)C1CN(CCO)C1 | in the range around 550 nM
74 | COc1cc(Oc2ccc(C(F)(F)F)cc2)c2ncc(C(=O)N[C@H](C)c3ccccn3)cc2c1 | in the range around 550 nM
75 | O=C(NC1(c2ccccc2)COC1)c1ccc2c(Oc3ccc(C(F)(F)F)cc3)cccc2c1 | < 100 nM
76 | C[C@@H](NC(=O)c1ccc2c(Oc3ccc(C(F)(F)F)cc3)cccc2c1)c1cccc(N(C)C)n1 | < 100 nM
77 | O=C(NC(CCO)CCO)c1ccc2c(Oc3ccc(C(F)(F)F)cc3)cccc2c1 | < 100 nM
78 | C[C@H](CCNCC(F)F)NC(=O)c1ccc2c(Oc3ccc(C(F)(F)F)cc3)cccc2c1 | < 100 nM
79 | CC(C)NC(=O)c1ccc2c(Oc3ccc(Cl)cc3)cccc2c1 | < 100 nM
80 | C[C@H](NC(=O)c1ccc2c(Oc3ccc(C(F)(F)F)cc3)cccc2c1)c1ccccc1Cl | < 100 nM
81 | C[C@@H](NC(=O)c1ccc2c(Oc3ccc(C(F)(F)F)cc3)cccc2c1)c1cccc2ccc(=O)[nH]c12 | < 100 nM
82 | O=C(N[C@H](CO)C1CNC1)c1ccc2c(Oc3ccc(C(F)(F)F)cc3)cccc2c1 | in the range around 550 nM
83 | O=C(NC(CO)Cc1ccccn1)c1ccc2c(Oc3ccc(C(F)(F)F)cc3)cccc2c1 (stereo unspecified) | < 100 nM
84 | CNS(=O)(=O)c1ccc2c(Oc3ccc(C(F)(F)F)cc3)cccc2c1 | < 100 nM
85 | C[C@H](NC(=O)c1ccc2c(Oc3ccc(C(F)(F)F)cc3)cccc2c1)c1cc(N(C)C)ccn1 | in the range around 550 nM
86 | C[C@@H](NC(=O)c1ccc2c(Oc3ccc(C(F)(F)F)cc3)cccc2c1)c1cc(N(C)C)ccn1 | in the range around 2000 nM
